Our source for the logP and chromatographic logP values is patent US20100081679A1, “DIAMINOPYRIMIDINES AS FUNGICIDES” (Bayer CropScience AG, priority 2007, published 2010).

Marks after values point to notes of the source that are not given here.

One data set in a line: logP determination via retention times, calibrated with unbranched alkan-2-ones. The conditions noted are these: HPLC on reversed-phase C 18, EEC Directive 79/831 Annex V.A8; method *: 40° C., 0.1% aqueous formic acid and acetonitrile, linear gradient 10% to 95% acetonitrile. In kind it is physicochemical.
As for `O=C1NC(=O)C(c2ccc(Nc3ncc(Cl)c(NCC4CC4)n3)cc2)N1` (stereo not drawn) [compound 512], the logP is 1.27*.

Consider `Oc1ccc(Nc2ncc(Br)c(NCC3CC3)n2)c(F)c1` [compound 478], for which the logP is 1.51*.

For `O=C1COCCN1c1ccc(Nc2ncc(Br)c(NC3CC3)n2)cc1` [compound 500], the logP is listed as 1.29*.

As to `CN(C=O)c1ccc(Nc2ncc(Cl)c(NCC3CC3)n2)cc1` [compound 545], the logP was 1.56*.

As to `FC(F)Sc1ccc(Nc2ncc(Br)c(NCC3CC3)n2)cc1` [compound 470], the logP is on record as 3.07*.

Still in this data set, the particulars now being: HPLC on reversed-phase C 18, method **: 43° C.; 0.1% aqueous phosphoric acid and acetonitrile; linear gradient 10% to 95% acetonitrile.
For the compound `CN(CC1CC1)c1nc(Nc2cccc(N3CCCC3=O)c2)ncc1Cl` [compound 964], the logP is 2.21**.

Turning to `CN(CC1CC1)c1nc(Nc2ccc(N3CCCC3=O)cc2)ncc1Cl` [compound 966], the logP is given as 2.09**.

For the compound `CSc1cccc(Nc2ncc(Cl)c(N(C)CC3CC3)n2)c1` [compound 968], the logP is listed as 3.6**.

The data set is the same for the next values; noted with them: HPLC on reversed-phase C18, method **: 43° C.; mobile phase 0.1% aqueous phosphoric acid and acetonitrile; linear gradient 10% to 95% acetonitrile.
As to `Nc1ccc(Nc2ncc(Cl)c(NC3CC3)n2)cc1` [compound 272], the logP is given as 0.48**.

The data set is the same for the next values; noted with them: HPLC on reversed-phase C18, method *: 40° C., 0.1% aqueous formic acid and acetonitrile, linear gradient 10% to 95% acetonitrile.
For the compound `FC(F)(F)Sc1ccc(Nc2ncc(Br)c(NC3CC3)n2)cc1` [compound 745], the logP was 3.9*.

Consider `COc1ccccc1Nc1ncc(Cl)c(NCC2CC2)n1` [compound 687], for which the logP is listed as 1.99*.

Turning to `CC(C)(C)C(=O)Cc1ccc(Nc2ncc(Cl)c(NCC3CC3)n2)cc1` [compound 676], the logP is reported as 2.39*.

For `NS(=O)(=O)c1cc(Nc2ncc(Cl)c(NCC3CC3)n2)ccc1Cl` [compound 693], the logP was 1.83*.

As to `O=C(Nc1cccc(Nc2ncc(Cl)c(NC3CC3)n2)c1)c1ccco1` [Example 99], the logP is given as 1.62*.

Consider `Oc1ccc(Nc2ncc(Br)c(NC3CC3)n2)cc1F` [compound 764], for which the logP is on record as 1.41*.

`FC(F)(F)c1cc(Nc2ncc(Cl)c(NC3CC3)n2)cc(C(F)(F)F)c1` [compound 903]: the logP is listed as 4.56*.

Regarding `Clc1cnc(Nc2cccc(Cl)c2Cl)nc1NC1CC1` [compound 937], the logP is recorded as 3.76*.

Consider `OC(c1cccc(Nc2ncc(C(F)(F)F)c(NCC3CC3)n2)c1)C(F)(F)F` (stereo not drawn) [compound 667], for which the logP is 2.82*.

Consider `Clc1cc(Nc2ncc(Cl)c(NC3CC3)n2)ccc1Br` [compound 919], for which the logP was 3.63*.

For `CC(=O)c1cc(Nc2ncc(Br)c(NC3CC3)n2)ccc1O` [compound 763], the logP is reported as 1.75*.

As for `CC(C)c1ccc(Nc2ncc(Cl)c(NC3CC3)n2)cc1` [compound 729], the logP is 2.54*.

In the case of `Oc1ccc(Nc2ncc(Br)c(NC3CC3)n2)cc1` [compound 114], the logP is 1.17*.

With `FC(F)(F)Oc1ccc(Nc2ncc(Br)c(NC3CC3)n2)cc1Cl` [compound 753], the logP is 4.13*.

With `CC(C)Sc1ccccc1Nc1ncc(Cl)c(NC2CC2)n1` [compound 885], the logP is 3.72*.

As to `N#Cc1cc(Nc2ncc(Cl)c(NC3CC3)n2)c(F)cc1Cl` [compound 936], the logP is recorded as 3.33*.

With `Cc1cccc(Nc2ncc(Cl)c(NC3CC3)n2)c1` [compound 731], the logP is given as 1.93*.

Still in this data set, the particulars now being: HPLC on reversed-phase C18, method *: 40° C.; mobile phase 0.1% aqueous formic acid and acetonitrile; linear gradient 10% to 95% acetonitrile.
As to `CC(C)(C)OC(=O)NCc1ccc(Nc2ncc(Br)c(NC3CC3)n2)cc1` [compound 329], the logP is listed as 2.02*.

On to `CC(C)(C)C(=O)Nc1cccc(Nc2ncc(Cl)c(NCC3CC3)n2)c1` [compound 312], for which the logP was 2.14*.

Consider `CCCNS(=O)(=O)Cc1cccc(Nc2ncc(Cl)c(NC3CC3)n2)c1` [compound 335], for which the logP is reported as 1.81*.

As for `CCOc1ccc(Nc2ncc(Br)c(NC3CC3)n2)cc1` [compound 308], the logP is on record as 1.87*.

As for `CSc1ccc(Nc2ncc(Cl)c(NC3CC3)n2)cc1C(F)(F)F` [compound 322], the logP is recorded as 3.48*.

With `Nc1ccc(Nc2ncc(Cl)c(NC3CC3)n2)cc1` [compound 272], the logP was 0.45*;.

Turning to `FC(F)(F)c1ccccc1Nc1ncc(Cl)c(NC2CC2)n1` [compound 276], the logP was 2.58*.

The same data set, now with this note: HPLC on reversed-phase C18 column (EEC Directive 79/831 Annex V.A8); method **: 43° C.; 0.1% aqueous phosphoric acid and acetonitrile; linear gradient 10% to 95% acetonitrile.
As to `CSc1cccc(Nc2ncc(C(F)(F)F)c(NC3CC3)n2)c1` [compound 266], the logP is 3.49**.

The data set is the same for the next values; noted with them: HPLC on reversed-phase C18 column (EEC Directive 79/831 Annex V.A8); method *: 40° C.; 0.1% aqueous formic acid and acetonitrile; linear gradient 10% to 95% acetonitrile.
With `CC(=O)Nc1cccc(Nc2ncc(C(F)(F)F)c(NCC3CC3)n2)c1` [compound 204], the logP is 1.9*.

As for `CN(C)S(=O)(=O)c1cccc(Nc2ncc(Br)c(NCC3CC3)n2)c1` [compound 192], the logP is 2.48*.

`CSc1cccc(Nc2ncc(C(F)(F)F)c(NC3CC3)n2)c1` [compound 266]: the logP is 3.29*;.

The same data set, now with this note: HPLC reversed-phase C 18, EEC Directive 79/831 Annex V.A8; method *: 40° C., 0.1% aqueous formic acid and acetonitrile, linear gradient 10% to 95% acetonitrile.
Turning to `CC1COC(=O)N1c1cccc(Nc2ncc(F)c(NC3CC3)n2)c1` (stereo not drawn) [compound 802], the logP is 1.18*.

Consider `CSC(C)c1cccc(Nc2ncc(C(F)(F)F)c(NC3CC3)n2)c1` (stereo not drawn) [compound 825], for which the logP is 3.81*.

For `N#CCc1cc(Nc2ncc(Cl)c(NC3CC3)n2)ccc1F` [compound 813], the logP is 1.76*.

With `CC(C)(C)c1ccc(Nc2ncc(Cl)c(NC3CC3)n2)cc1` [compound 829], the logP is on record as 2.92*.

The data set is the same for the next values; noted with them: method **: HPLC reversed-phase C 18, 43° C., 0.1% aqueous phosphoric acid and acetonitrile, linear gradient 10% to 95% acetonitrile.
As to `Cc1ccc(Nc2ncc(Cl)c(NC3CC3)n2)cc1S(=O)(=O)N(C)C` [Example 47], the logP was 2.14**.

For `CNS(=O)(=O)c1ccc(Nc2ncc(Cl)c(NC3CC3)n2)cc1` [compound 21], the logP is 1.71**.

In the case of `O=C1CCCN1c1ccc(Nc2ncc(Cl)c(NC3CC3)n2)cc1` [Example 34], the logP is recorded as 1.45**.

On to `CC(C)c1ccc(Nc2ncc(Cl)c(NCC3CC3)n2)cc1` [Example 54], for which the logP is listed as 2.62**.

Staying with this data set, now noted: method **: HPLC reversed-phase C 18, temperature 43° C.; mobile phase 0.1% aqueous phosphoric acid and acetonitrile; linear gradient 10% to 95% acetonitrile.
In the case of `CNC(=O)c1ccc(Nc2ncc(C(F)(F)F)c(NC3CC3)n2)cc1` [compound 651], the logP was 1.81**.

With `CNC(=O)c1cccc(Nc2ncc(C(F)(F)F)c(NC3CC3)n2)c1` [compound 652], the logP is 1.78**.

The data set is the same for the next values; noted with them: method **: HPLC, reversed-phase C 18, 43° C., mobile phase 0.1% aqueous phosphoric acid and acetonitrile, linear gradient from 10% to 95% acetonitrile.
For `Clc1cnc(Nc2cccc(Cn3ccnc3)c2)nc1NC1CC1` [compound 1046], the logP is reported as 0.83**.

Take `Clc1cnc(Nc2ccccc2)nc1NC1CC1c1ccccc1` (stereo not drawn) [compound 1014]: the logP is 2.77**.

Still in this data set, the particulars now being: method *: HPLC reversed-phase C18, 40° C., 0.1% aqueous formic acid and acetonitrile, linear gradient 10% to 95% acetonitrile.
On to `Ic1cnc(Nc2ccccc2)nc1NC1CC1` [compound 364], for which the logP is listed as 1.82*.

With `Clc1cnc(Nc2ccc3[nH]ccc3c2)nc1NC1CC1` [Example 71], the logP is listed as 1.47*.

With `CC(C)COc1cccc(Nc2ncc(Br)c(NC3CC3)n2)c1` [compound 445], the logP is recorded as 3.36*.

For the compound `CCCSc1cccc(Nc2ncc(Cl)c(NC3CC3)n2)c1` [compound 437], the logP was 3.33*.

As to `CC(=O)N(c1ccc(Nc2ncc(Cl)c(NC3CC3)n2)cc1)C1CC1` [Example 63], the logP is 1.62*.

With `O=C1CCC(=O)N1c1cccc(Nc2ncc(Br)c(NC3CC3)n2)c1` [compound 447], the logP was 1.38*.

On to `Brc1cnc(Nc2ccc3c(c2)OCO3)nc1NCC1CC1` [compound 418], for which the logP is reported as 1.83*.

In the case of `CC(C)(C)NC(=O)c1cccc(Nc2ncc(Br)c(NCC3CC3)n2)c1` [compound 461], the logP is recorded as 2.16*.

Take `CC(C)(C)C(=O)Nc1ccc(Nc2ncc(Br)c(NCC3CC3)n2)cc1` [compound 450]: the logP is 1.99*.

`CSc1cccc(Nc2ncc(Cl)c(NC3CC3)n2)c1` [Example 74]: the logP is on record as 2.21*.

The same data set, now with this note: method *: HPLC reversed-phase C 18, temperature 40° C.; mobile phase 0.1% aqueous formic acid and acetonitrile; linear gradient 10% to 95% acetonitrile.
As for `CNC(=O)c1ccc(Nc2ncc(C(F)(F)F)c(NC3CC3)n2)cc1` [compound 651], the logP is listed as 1.78*;.

For `CCOC(=O)Nc1cccc(Nc2ncc(F)c(NC3CC3)n2)c1` [compound 596], the logP is recorded as 1.53*.

Turning to `CNC(=O)c1cccc(Nc2ncc(C(F)(F)F)c(NC3CC3)n2)c1` [compound 652], the logP is recorded as 1.78*;.

As for `CCC(=O)Nc1cccc(Nc2ncc(C#N)c(NC3CC3)n2)c1` [compound 607], the logP is 1.94*.

For the compound `CC(C)(CF)C(=O)Nc1cccc(Nc2ncc(F)c(NC3CC3)n2)c1` [compound 600], the logP is 1.55*.

`O=S(=O)(c1cccc(Nc2ncc(F)c(NC3CC3)n2)c1)N1CCCCC1` [compound 588]: the logP was 1.61*.

As to `COc1cccc(Nc2ncc(C#N)c(NC3CC3)n2)c1` [compound 604], the logP is reported as 2.48*.

`CSc1cccc(Nc2ncc(F)c(NC3CC3)n2)c1` [compound 586]: the logP is 1.73*.

Take `O=C1OCCN1c1ccc(Nc2ncc(F)c(NC3CC3)n2)cc1` [compound 592]: the logP is 1.23*.

Still in this data set, the particulars now being: method *: HPLC, reversed-phase C 18, 40° C., mobile phase 0.1% aqueous formic acid and acetonitrile, linear gradient from 10% to 95% acetonitrile.
Take `CCCCOc1cc(Nc2ncc(Cl)c(NC3CC3)n2)ccc1C` [compound 991]: the logP is 3.13*.

The same data set, now with this note: pH 2.3; read-out: logP (pH2.3).
Take `Cc1cnc(Cl)nc1NC1CC1` [2-chloro-N-cyclopropyl-5-methylpyrimidine-4-amine]: the chromatographic logP worked out at 1.28.

As for `FC(F)(F)c1cnc(Cl)nc1NCC1CC1` [2-chloro-N-(cyclopropylmethyl)-5-trifluoromethylpyrimidine-4-amine], the chromatographic logP turned out to be 3.4.

Regarding `O=c1[nH]c(Nc2ccccc2)ncc1Cl` [2-Anilino-5-chloropyrimidin-4(3H)-one], the chromatographic logP was 1.56.
